{"source": "patent US12691112B2", "about": "“FGFR tyrosine kinase inhibitors for the treatment of urothelial carcinoma” (Janssen Pharmaceutica NV, priority 2019, dated 2026)", "key": {"[1]": {"tested_on": "metastatic or surgically unresectable urothelial cancer harboring select FGFR genetic alterations", "test": "Phase 2 study NCT02365597: tumor response per independent radiographic review committee (BIRC)", "type": "in vivo, human", "method": "Patients were contacted every 12 weeks for survival assessment.\nThe study was designed to enroll 180 patients with specified FGFR alterations. Of these, ≥88 were required in the selected regimen. […] Responses were assessed by investigators and an independent radiological review committee. Progression-free survival and overall survival were estimated using Kaplan-Meier product limit method. Data from patients who were progression free and alive or with unknown status were censored at last tumor assessment. Efficacy end points were analysed at primary analysis cut-off."}, "[2]": {"test": "Excretion after single oral dose of radiolabeled erdafitinib", "type": "in vivo"}, "[3]": {"conditions": "human, in vivo"}, "[4]": {"conditions": "Regimen 3, 8 mg continuous (n=99)"}, "[5]": {"conditions": "Regimen 3, chemotherapy-refractory patients, N = 87"}}, "note": "Values joined by “and” are separate entries in the source; they are usually repeats but may differ in a detail not shown here. Equal entries are not always repeated."}
{"smiles": "COc1cc(OC)cc(N(CCNC(C)C)c2ccc3ncc(-c4cnn(C)c4)nc3c2)c1", "note": "[erdafitinib, N-(3,5-dimethoxy-phenyl)-N′-(1-methylethyl)-N-[3-(1-methyl-1H-pyrazol-4-yl)quinoxalin-6-yl]ethane-1,2-diamine]", "values": [{"measurement": "Complete response rate per independent radiographic review committee", "setting": "[1]; [4]", "result": "3 (3.0) %"}, {"measurement": "Objective response rate per independent radiographic review committee", "setting": "[1]; [4]", "result": "34.3% and 34 (34.3) %"}, {"measurement": "Partial response per independent radiographic review committee", "setting": "[1]; [4]", "result": "31 (31.3) %"}, {"measurement": "Complete response (CR), BIRC assessment", "setting": "[1]; [5]", "result": 2.3, "unit": "%"}, {"measurement": "Median DoR (95% CI), BIRC assessment", "setting": "[1]; [5]", "result": "5.4 (4.2, 6.9) months"}, {"measurement": "ORR (95% CI), BIRC assessment", "setting": "[1]; [5]", "result": "32.2% and 32.2 (22.4, 42.0) %"}, {"measurement": "Partial response (PR), BIRC assessment", "setting": "[1]; [5]", "result": 29.9, "unit": "%"}, {"measurement": "ORR (95% CI), BIRC assessment", "setting": "[1]; Regimen 3, chemotherapy-refractory, FGFR3 fusion, N = 18", "result": "11.1 (0, 25.6) %"}, {"measurement": "dose recovered in feces", "setting": "[2]", "result": "approximately 69%"}, {"measurement": "dose recovered in feces as unchanged", "setting": "[2]", "result": 19, "unit": "%"}, {"measurement": "dose recovered in urine", "setting": "[2]", "result": 19, "unit": "%"}, {"measurement": "dose recovered in urine as unchanged", "setting": "[2]", "result": 13, "unit": "%"}, {"measurement": "circulating metabolites in plasma", "setting": "[3]", "result": "no circulating metabolites"}, {"measurement": "exposure (Cmax and AUC) versus dose", "setting": "[3]", "result": "increased proportionally"}, {"measurement": "mean total apparent clearance (CL/F)", "setting": "[3]", "result": 0.362, "unit": "L/h"}, {"measurement": "pharmacokinetics in specific populations", "setting": "[3]", "result": "No clinically meaningful trends"}, {"measurement": "time to steady state", "setting": "[3]", "result": 2, "unit": "weeks"}]}
